Test [1] deals with Her2. The experiment in a line: Degradation of Her2 in BT-474 cells (Method 1, Western blot). As to conditions: 0.5 μM, overnight. Type of test: cell-based, human. The procedure: Human high-Her2 breast carcinoma BT474 (HTB-20), SK-BR-3 (HTB-30) and MCF-7 breast carcinoma (HTB-22) from American Type Culture Collection, VA, USA were grown in Dulbecco's modified Eagle's medium with 4 mM L-glutamine and antibiotics (100 IU/ml penicillin and 100 ug/ml streptomycine; GibcoBRL). To obtain exponential cell growth, cells were trypsinized, counted and seeded at a cell density of 0.5×10^6 cells /ml regularly, every 3 days. All experiments were performed on day 1 after cell passage.
BT-474 cells are treated with 0.5 μM, 2 μM, or 5 μM of 17AAG (a positive control) or 0.5 μM, 2 μAM, or 5 μM of a compound of the invention overnight in DMEM medium. After treatment, each cytoplasmic sample is prepared from 1×10^6 cells by incubation of cell lysis buffer (#9803, cell Signaling Technology) on ice for 10 minutes. The resulting supernatant used as the cytosol fractions is dissolved with sample buffer for SDS-PAGE and run on a SDS-PAGE gel, blotted onto a nitrocellulose membrane by using semi-dry transfer. Non-specific binding to nitrocellulose is blocked with 5% skim milk in TBS with 0.5% Tween at room temperature for 1 hour, then probed with anti-Her2/ErB2 mAb (rabbit IgG, #2242, Cell Signaling) and anti-Tubulin (T9026, Sigmna) as housekeeping control protein. […]
In general terms: Immunoblotting shows a protein as a band on a membrane.

Test [2] deals with c-kit. The experiment in a line: FACS-based c-kit degradation assay in Kasumi-1 cells. Type of test: cell-based. As to conditions: about 18 h. As to the method:
Leukemia cell line, Kasumi-1, was used for testing c-kit degradation induced by Hsp90 inhibitors of the invention. The cells (3×10^5 per well) were treated with 17AAG (0.5 μM) or Compound 11 (0.05 μM or 0.5 μM) for about 18 h. The cells were collected and centrifuged (SORVALL RT 6000D) at 1200 rpm for 5 min. The supernatants were discarded, and the cells were washed one time with 1×PBS. After centrifugation the cells were stained with FITC conjugated c-kit antibody (MBL International, Cat# K0105-4) in […] 1×PBS at 4° C. for 1 h. The samples were read and analyzed with FACSCalibur flow cytometer (Becton Dicknson).

Test [3] has as its system c-kit. In words: Western blot analysis of c-Kit in Kasumi-1 cells. The test is classed as cell-based. The procedure: The results of the FACS analysis were confirmed with Western blot analysis (see FIG. 2). […] In contrast, 17-AAG had no effect of c-Kit protein levels at either 100 nM or 400 nM.

The text below walks through data of patent US7662813B2, “Triazole compounds that modulate HSP90 activity” (Synta Pharmaceuticals Corp., priority 2005, dated 2010).

Take `C=CCNC1=C2C[C@@H](C)C[C@H](OC)[C@H](O)[C@@H](C)/C=C(\C)[C@H](OC(N)=O)[C@@H](OC)/C=C\C=C(/C)C(=O)NC(=CC1=O)C2=O` [Compound 17AAG, reference compound]: in test [1], the “Degradation of Her2” value was “partial degradation of Her2”. Further, in test [2] (0.5 μM), the “c-kit degradation (FACS)” value is “could not induce c-kit degradation”. For the same compound, the “Degradation of c-Kit (Western blot)” value in test [3] (100 nM) and in test [3] (400 nM) was “no effect” throughout.
In the case of `CCCN(C)c1cc(-n2c(S)nnc2-c2cc(C(C)C)c(O)cc2O)ccc1OC` [Compound 11, 4-(4-(3-(N-methyl-N-propylamino)-4-methoxyphenyl)-5-mercapto-4H-1,2,4-triazol-3-yl)-6-isopropylbenzene-1,3-diol], the “c-kit degradation (FACS)” value in test [2] (0.05 μM) and in test [2] (0.5 μM) was “induced c-kit degradation” in each case. Further, the “Degradation of c-Kit (Western blot)” value in test [3] (100 nM) and in test [3] (400 nM) was “induced the degradation of c-Kit” throughout.
For the compound `CCN(C)c1cc(-n2c(S)nnc2-c2cc(C(C)C)c(O)cc2O)ccc1OC` [Compound 12, 4-(4-(3-(N-methyl-N-ethylamino)-4-methoxy-phenyl)-5-mercapto-4H-1,2,4-triazol-3-yl)-6-isopropylbenzene-1,3-diol], the “Degradation of c-Kit (Western blot)” value in test [3] (100 nM) and in test [3] (400 nM) was “induced the degradation of c-Kit” in each case.
